Assay results taken from US11666580B2, “Mechanism of resistance to bet bromodomain inhibitors” (Dana-Farber Cancer Institute, Inc., priority 2015, dated 2023).

Tests used:
[1] = system: tumors derived from MDA-MB-231; assay: Xenograft assay, MDA-MB-231; format: in vivo, mice; details: two weeks of JQ1, 50 mg/kg daily
Description: (§1) For xenograft assays 5-6-weeks old female CrTac:NCr-Foxn1^nu and NOD.Cg-Prkdc^scid Il2rg^tm1Sug/JicTac mice were purchased from Taconic. Tumors were induced by bilateral orthotopic mammary fat pad injection of 1×10^6 cells in 50% Matrigel (BD Biosciences) in DMEM/F12 or Medium 171 (except for IDC50-X cells, which were injected with 3% FBS and 4 mg/ml collagen gel in Medium 171). Animal experiments were conducted following protocol 11-023 approved by the Dana-Farber Cancer Institute Animal Care and Use Committee.

[2] = system: patient-derived primary human TNBC xenografts; assay: Xenograft assay, patient-derived TNBC; format: in vivo, mice; details: two weeks of JQ1, 50 mg/kg daily
Description: as §1

[3] = molecular target: BRD4-MED1 association in SUM159 cells (Homo sapiens, UniProt O60885); details: sensitive cells
Description: Cells were lysed five days after transfection with siRNAs in RIPA buffer. Proteins were resolved in SDS-polyacrylamide gels (4%-12%) and transferred to PVDF membranes by using a Tris-glycine buffer system. Membranes were blocked with 5% milk powder in 0.1% Tween20 in PBS (PBS-T) for 1 hr at room temperature followed by incubation with primary antibodies at 1:1000 dilution in 2.5% milk PBS-T. For immunoprecipitation, nuclear extracts were prepared as follow: 10×10^6 cells were resuspended in 5 ml Buffer A: 10 mM Tris pH 7.9, 1.5 mM MgCl2, 10 mM KCl, 0.05% NP-40, 1 mM DTT, and protease and phosphatase inhibitors. Cells were incubated on ice for 15 min and gently vortexed every 5 min. After centrifugation at 2,000 g for 5 min, pellets were suspended in 0.3 ml buffer B (20 mM Tris pH 7.9, 25% glycerol, 0.42 M NaCl, 1.5 mM MgCl2, 1 mM KCl, 0.5% NP40, 0.2 mM EDTA, 1 mM DTT, and protease and phosphatase inhibitors) and incubated for 5 min on ice. After centrifugation of the lysates at 14 g for 10 min at 4° C., supernatant was diluted with 0.6 ml buffer A, and added NP-40 to final 0.5% and treated with DNase I. The samples were then incubated at 4° C. overnight with BRD4 or Flag antibodies at 1:100 dilution and immunoprecipitates were collected on Dynabeads Protein G for 2 hr. […]

Structure (SMILES): Cc1sc2c(c1C)C(c1ccc(Cl)cc1)=N[C@@H](CC(=O)OC(C)(C)C)c1nnc(C)n1-2 [JQ1]
- Tumor growth [1]: efficiently inhibited the growth of established tumors
- Tumor growth [2]: efficiently inhibited the growth of established tumors
- Association of BRD4 with MED1 [3]: efficiently displaced BRD4 from MED1
